According to patent publication US8614206B2 (Genentech, Inc., priority 2011, dated 2013):

Target: PIM1 (Homo sapiens (Human), UniProt P11309)
Test: Pim kinase inhibition, PIM1 LC3K (Example 901)
Format: biochemical
Description: Determination of the Pim kinase activity of a Formula I compound is possible by a number of direct and indirect detection methods.

PIM1, sequence (P11309 whole entry): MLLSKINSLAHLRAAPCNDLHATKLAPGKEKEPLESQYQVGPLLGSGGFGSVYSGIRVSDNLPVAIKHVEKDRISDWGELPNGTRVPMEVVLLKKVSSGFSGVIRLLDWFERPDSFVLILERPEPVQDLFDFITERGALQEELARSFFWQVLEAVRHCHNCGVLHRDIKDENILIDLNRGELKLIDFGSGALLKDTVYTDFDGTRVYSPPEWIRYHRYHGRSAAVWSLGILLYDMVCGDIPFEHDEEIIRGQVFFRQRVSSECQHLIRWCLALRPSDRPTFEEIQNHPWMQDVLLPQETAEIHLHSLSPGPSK

SMILES | Ki
Cn1ncc(NC(=O)c2nc(-c3ccccc3F)cnc2N)c1N1CCC(N)CC(F)(F)C1 (racemic) [Example 293, 3-amino-N-(5-(5-amino-3,3-difluoroazepan-1-yl)-1-methyl-1H-pyrazol-4-yl)-6-(2-fluorophenyl)pyrazine-2-carboxamide] | 0.023 nM
CCn1ncc(NC(=O)c2nc(-c3c(F)cccc3F)sc2N)c1N1CCC(N)C(F)CC1 (single isomer, unassigned) [Example 369, 5-amino-N-[5-(4-amino-5-fluoro-azepan-1-yl)-1-ethyl-pyrazol-4-yl]-2-(2,6-difluorophenyl)thiazole-4-carboxamide] | 0.178 nM
Nc1sc(-c2cc(F)ccc2F)nc1C(=O)Nc1cnn(C2CC2)c1N1CCC(N)C(F)CC1 (stereo not drawn) [Example 339, 5-amino-N-[5-(4-amino-5-fluoro-azepan-1-yl)-1-cyclopropyl-pyrazol-4-yl]-2-(2,5-difluorophenyl)thiazole-4-carboxamide] | 0.226 nM
Cn1ncc(NC(=O)c2nc(-c3c(F)cccc3F)sc2N)c1N1CCC2(CCNC2=O)CC1 [Example 360, 5-amino-2-(2,6-difluorophenyl)-N-[1-methyl-5-(1-oxo-2,8-diazaspiro[4.5]decan-8-yl)pyrazol-4-yl]thiazole-4-carboxamide] | 0.391 nM
Nc1sc(-c2c(F)cccc2F)nc1C(=O)Nc1cnn(CC(F)F)c1N1CC[C@H](N)CC(F)(F)C1 (single isomer, unassigned) [Example 280] | 0.01 nM
Nc1sc(-c2cc(F)ccc2F)nc1C(=O)Nc1cnn(C2CC2)c1N1CCC(N)C(F)CC1 (stereo not drawn) [Example 338, 5-amino-N-[5-(4-amino-5-fluoro-azepan-1-yl)-1-cyclopropyl-pyrazol-4-yl]-2-(2,5-difluorophenyl)thiazole-4-carboxamide] | 0.159 nM
Cn1ncc(NC(=O)c2nc(-c3c(F)cccc3F)sc2N)c1N1CCC[C@H](N(CCO)CCO)CC1 [Example 336, 5-amino-N-[5-[(4S)-4-[bis(2-hydroxyethyl)amino]azepan-1-yl]-1-methyl-pyrazol-4-yl]-2-(2,6-difluorophenyl)thiazole-4-carboxamide] | 0.199 nM
Nc1sc(-c2c(F)cccc2F)nc1C(=O)Nc1cnn(CC2COC2)c1N1CCNCC1 [Example 251, 5-Amino-2-(2,6-difluoro-phenyl)-thiazole-4-carboxylic acid (1-oxetan-3-ylmethyl-5-piperazin-1-yl-1H-pyrazol-4-yl)-amide] | > 667 nM
Cn1ncc(NC(=O)c2nc(-c3c(F)cncc3F)sc2N)c1N1CC[C@H](N)[C@@H](F)CC1 [Example 471, 5-amino-N-[5-[(4S,5S)-4-amino-5-fluoro-azepan-1-yl]-1-methyl-pyrazol-4-yl]-2-(3,5-difluoro-4-pyridyl)thiazole-4-carboxamide] | 0.242 nM
COC1CCC2(c3c(NC(=O)c4nc(-c5ccccc5F)sc4N)cnn3C)CCC1N2 (stereo not drawn) [Example 423, 5-amino-2-(2-fluorophenyl)-N-[5-(2-methoxy-8-azabicyclo[3.2.1]octan-5-yl)-1-methyl-pyrazol-4-yl]thiazole-4-carboxamide] | 0.362 nM
Cc1ccc(F)c(-c2nc(C(=O)Nc3cnn(CC(F)F)c3N3CCCC(O)CC3)c(N)s2)c1 (stereo not drawn) [Example 111, 5-Amino-N-(1-(2,2-difluoroethyl)-5-(4-hydroxyazepan-1-yl)-1H-pyrazol-4-yl)-2-(2-fluoro-5-methylphenyl)thiazole-4-carboxamide] | 0.079 nM
Cn1ncc(NC(=O)c2nc(-c3cc(F)ccc3F)sc2N)c1N1CC[C@H](N)CC(F)(F)C1 [Example 282, (S)-5-amino-N-(5-(5-amino-3,3-difluoroazepan-1-yl)-1-methyl-1H-pyrazol-4-yl)-2-(2,5-difluorophenyl)thiazole-4-carboxamide] | 0.004 nM
Nc1sc(-c2cc(F)ccc2F)nc1C(=O)Nc1cnn(CC(F)F)c1N1CCCC(O)CC1 (stereo not drawn) [Example 118, 5-Amino-N-(1-(2,2-difluoroethyl)-5-(4-hydroxyazepan-1-yl)-1H-pyrazol-4-yl)-2-(2,5-difluorophenyl)thiazole-4-carboxamide] | 0.292 nM
Cc1nn(C)cc1-c1nc(C(=O)Nc2cnn(C)c2N2CC[C@@H](N)[C@H](F)CC2)c(N)s1 [Example 437, 5-amino-N-[5-[(4R,5R)-4-amino-5-fluoro-azepan-1-yl]-1-methyl-pyrazol-4-yl]-2-(1,3-dimethylpyrazol-4-yl)thiazole-4-carboxamide] | 0.477 nM
CCn1ncc(NC(=O)c2nc(-c3c(F)cccc3F)sc2N)c1N1CC[C@H](N)[C@H](OC)CC1 [Example 376, 5-amino-N-(5-((4S,5R)-4-amino-5-methoxyazepan-1-yl)-1-ethyl-1H-pyrazol-4-yl)-2-(2,6-difluorophenyl)thiazole-4-carboxamide] | 0.223 nM
Cn1ncc(NC(=O)c2nc(-c3ccccc3F)sc2N)c1N1CCNCC2(CCO2)C1 (racemic) [Example 477, 5-amino-2-(2-fluorophenyl)-N-[1-methyl-5-(1-oxa-6,9-diazaspiro[3.6]decan-6-yl)pyrazol-4-yl]thiazole-4-carboxamide] | 0.188 nM
Cn1ncc(NC(=O)c2nc(-c3cccc(O)n3)sc2N)c1N1CCC[C@H](N)CC1 [Example 393, 5-amino-N-[5-[(4S)-4-aminoazepan-1-yl]-1-methyl-pyrazol-4-yl]-2-(6-hydroxy-2-pyridyl)thiazole-4-carboxamide] | 14 nM

SMILES | Ki
Cn1ncc(NC(=O)c2nc(-c3ccnc(F)c3)sc2N)c1N1CCC[C@H](N)CC1 [Example 417, 5-amino-N-[5-[(4S)-4-aminoazepan-1-yl]-1-methyl-pyrazol-4-yl]-2-(2-fluoro-4-pyridyl)thiazole-4-carboxamide] | 2.12 nM
CCn1ncc(NC(=O)c2nc(-c3ccccc3F)sc2N)c1N1CCC(N)C(F)CC1 (single isomer, unassigned) [Example 373, 5-amino-N-[5-(4-amino-5-fluoro-azepan-1-yl)-1-ethyl-pyrazol-4-yl]-2-(2-fluorophenyl)thiazole-4-carboxamide] | 0.373 nM
Cn1ncc(NC(=O)c2nc(-c3ccccc3F)ccc2N)c1N1CC[C@H](N)CC(F)(F)C1 (stereo in doubt) [Example 249, 3-amino-N-(5-(5-amino-3,3-difluoroazepan-1-yl)-1-methyl-1H-pyrazol-4-yl)-6-(2-fluorophenyl)picolinamide] | 0.02 nM
COC1CCN(c2c(NC(=O)c3nc(-c4c(F)cccc4F)sc3N)cnn2C2CC2)CCC1N (single isomer, unassigned) [Example 402, 5-amino-N-[5-(4-amino-5-methoxy-azepan-1-yl)-1-cyclopropyl-pyrazol-4-yl]-2-(2,6-difluorophenyl)thiazole-4-carboxamide] | 0.126 nM
Nc1sc(-c2c(F)cccc2F)nc1C(=O)Nc1cnn(CC(F)F)c1N1CC[C@@H](N)CC(F)(F)C1 [Example 281] | 0.02 nM
Cc1cnc(C)c(-c2nc(C(=O)Nc3cnn(C)c3N3CC[C@@H](N)[C@H](F)CC3)c(N)s2)c1 [Example 445, 5-amino-N-[5-[(4R,5R)-4-amino-5-fluoro-azepan-1-yl]-1-methyl-pyrazol-4-yl]-2-(2,5-dimethyl-3-pyridyl)thiazole-4-carboxamide] | 0.446 nM
Cc1ccc(F)c(-c2nc(C(=O)Nc3cnn(C)c3N3CC[C@H](N)CC(F)(F)C3)c(N)s2)c1 [Example 284, (S)-5-amino-N-(5-(5-amino-3,3-difluoroazepan-1-yl)-1-methyl-1H-pyrazol-4-yl)-2-(2-fluoro-5-methylphenyl)thiazole-4-carboxamide] | 0.015 nM
Cn1ncc(NC(=O)c2nc(-c3c(F)cccc3F)sc2N)c1N1CCC2(CNC2)C1 [Example 359, 5-amino-N-[5-(2,6-diazaspiro[3.4]octan-6-yl)-1-methyl-pyrazol-4-yl]-2-(2,6-difluorophenyl)thiazole-4-carboxamide] | 0.783 nM
Cn1ncc(NC(=O)c2nc(-c3c(F)cccc3F)sc2N)c1N1CCC(N)C2(CCO2)CC1 (single isomer, unassigned) [Example 497, 5-amino-N-[5-(5-amino-1-oxa-8-azaspiro[3.6]decan-8-yl)-1-methyl-pyrazol-4-yl]-2-(2,6-difluorophenyl)thiazole-4-carboxamide] | 0.268 nM
Cc1cc(-c2nc(C(=O)Nc3cnn(C)c3N3CC[C@@H](N)[C@H](F)CC3)c(N)s2)ccn1 [Example 431, 5-amino-N-[5-[(4R,5R)-4-amino-5-fluoro-azepan-1-yl]-1-methyl-pyrazol-4-yl]-2-(2-methyl-4-pyridyl)thiazole-4-carboxamide] | 1.04 nM
COC1CCN(c2c(NC(=O)c3nc(-c4c(F)cccc4F)sc3N)cnn2C2CC2)CCC1N (single isomer, unassigned) [Example 404, 5-amino-N-[5-(4-amino-5-methoxy-azepan-1-yl)-1-cyclopropyl-pyrazol-4-yl]-2-(2,6-difluorophenyl)thiazole-4-carboxamide] | 0.036 nM
Cn1ncc(NC(=O)c2nc(-c3ccccc3F)sc2N)c1N1CCNC[C@]2(CCO2)C1 (single isomer, unassigned) [Example 481] | 0.496 nM
Cn1ncc(NC(=O)c2nc(-c3ccccc3F)cnc2N)c1N1CC[C@@H](N)CC(F)(F)C1 (single isomer, unassigned) [Example 248] | 0.007 nM
Cn1ncc(NC(=O)c2nc(-c3ncccc3F)sc2N)c1N1CC[C@H](N)[C@@H](F)CC1 [Example 269, 5-amino-N-(5-((4S,5S)-4-amino-5-fluoroazepan-1-yl)-1-methyl-1H-pyrazol-4-yl)-2-(3-fluoropyridin-2-yl)thiazole-4-carboxamide] | 0.091 nM
Cn1ncc(NC(=O)c2nc(-c3c(F)cccc3F)sc2N)c1N1CCC[C@H](NCC2COC2)CC1 [Example 342, 5-amino-2-(2,6-difluorophenyl)-N-[1-methyl-5-[(4S)-4-(oxetan-3-ylmethylamino)azepan-1-yl]pyrazol-4-yl]thiazole-4-carboxamide] | 0.075 nM
Nc1sc(-c2c(F)cccc2F)nc1C(=O)Nc1cnn(CC(F)F)c1N1CCCC[C@@H](N)C1 [Example 104, (R)-5-amino-N-(5-(3-aminoazepan-1-yl)-1-(2,2-difluoroethyl)-1H-pyrazol-4-yl)-2-(2,6-difluorophenyl)thiazole-4-carboxamide] | 0.091 nM
